Values quoted from earlier work in article PMC10882020 (Heliyon, 2024).

What was measured:
ACE = details: read-out: ACE inhibitory activity IC50; ref 11 (Zheng et al.)
[1] = orally administered at a dose of 100–150 mg/kg; ref 11 (Zheng et al.)

IC50 (ACE): 38.2 µM
Sequence: RGQVIYVL
antihypertensive effects [1]: significant antihypertensive effects
